Test results reported in paper PMC9499463, “Potent Chlorambucil-Platinum(IV) Prodrugs” (International Journal of Molecular Sciences, 2022).
Values joined by “and” are separate entries in the source; they are usually repeats but may differ in a detail not shown here. Equal entries are not always repeated.

Columns and labels:
HT29 colon cells = assay: ROS detection assay (DCFH-DA fluorescence); assay type: cell-based, human; settings: compounds at GI50 concentration, TBHP and NAC 20 μM
Experimental: HT29 colon cells were stained by DCFH-DA and then treated with the compounds at each specific GI50 concentration. Upon ROS production, the DCFH-DA produced […], a fluorescent product. The measured fluorescence was, therefore, proportional to the produced ROS. […] 56CLB at 24 h reported 395 RFU, 437 RFU at 48 h, and 558 RFU at 72 h (Table 6, Figure 14 and Figure S42), respectively, showing a significant production of ROS in comparison to control cells. 5CLB at 24 h produced 337 RFU, 324 RFU at 48 h, and 376 RFU at 72 h (Table 6, Figure 14 and Figure S42), respectively.
To investigate for the presence of ROS in treated cells, DCFDA/H2DCFDA-cellular ROS Assay Kit (Abcam, Cambridge, MA, USA) was used, as described. A total of 25,000 cells/mL of HT29 cells in DMEM were seeded in 96-well plates. Cells were washed with 1X kit buffer, then stained with 25 μM 2’,7’-dichlorofluorescein diacetate (DCFH-DA) and incubated for 45 min. DCFH-DA was then removed, and cells were then re-washed with 1X kit buffer, after which phenol red free media was added. Cells were then treated with GI50 drug concentration for each complex. The plates were directly scanned to measure fluorescence (relative fluorescence units (RFU)) at different time points using the Glo-Max®-Multimode microplate reader (Promega Corporation, Alexandra, VIC, Australia) at an excitation/emission of 485/535 nm. To generate the positive control (20 μM tert-butyl hydroperoxide (TBHP)), cells were washed with 1X kit buffer, and stained with DCFDA (25 μM) for 45 min. DCFDA was then removed and TBHP was added in phenol red free media. The plate was scanned to measure the RFU at different time points as mentioned above. The same method applies for the negative control treated with 20 μM N-acetylcysteine (NAC).

[1] = Lipophilicity by HPLC (log kw); assay type: physicochemical; settings: chromatographic lipophilicity index, extrapolated to 100% d.i.H2O
Source text: For lipophilicity measurements, HPLC was utilized instead of the traditional shake-flask method, as described. A few studies have also reported the important and effective use of HPLC to measure the lipophilicity of compounds [66, 67]. Each complex was eluted under several isocratic ratios. A standard curve was then generated to calculate the log value of the capacity factor (log k) according to eqn (1). Following eqn (2), the percentage of organic solvent (CH3CN) in the mobile phase from each isocratic run was plotted against […] (Figure S34). Since log kw is the chromatographic lipophilicity index or measure of lipophilicity of the complex, a higher value corresponds to greater lipophilicity. Since PCLB, 5CLB, and 56CLB are structurally related, there were no significant variations in lipophilicity noted based on the calculated log kw values (Table 4). It is evident that PCLB is the least lipophilic of the group, with a calculated log kw value of 1.80, which is likely due to the absence of methyl groups in its phenanthroline system. 5CLB and 56CLB were the most lipophilic of the group with calculated log kw values of 1.90 and 1.87, respectively, and this is due to the presence of methyl substituents in their phenanthroline systems. […] Additionally, the chromatographic lipophilicity index of CLB was also measured using the abovementioned method, with a calculated log kw of 1.88, which is within the range observed for PCLB, 5CLB, and 56CLB. However, CLB was approximately 1-fold more lipophilic than PCLB. […] The order of increasing lipophilicity is […].
For lipophilicity measurements, analytical HPLC was utilized. Elution profiles were acquired on an Agilent Technologies 1260 Infinity instrument equipped with a Phenomenex Onyx^TM Monolithic C18-reverse phase column (100 × 4.6 mm, 5 µm pore size). The mobile phase consisted of solvents, A (0.06% TFA in d.i.H2O) and B (0.06% TFA in CH3CN/d.i.H2O (90:10)). Potassium iodide was used as an external dead volume marker to determine the dead time of the column. Retention times (TR) were measured at varying isocratic ratios ranging from 42% to 48% of solvent B at 1 mL/min. An injection volume of 10 µL was utilized. Capacity factors were determined according to Equation (1):(1) k=(TR−T0)/T0, where k is the capacity factor, TR is the retention time of the analyte, and T0 represents the dead time. A minimum of four different mobile compositions were used for each complex to calculate k. A linear plot was generated of log k against the concentration of CH3CN in the mobile phase to determine the value of log kw expressed by Equation (2):(2) logk=Sφ+logkw, where S is the slope, φ is the concentration of the CH3CN in the mobile phase and log kw represents the capacity factor of the complex in 100% d.i.H2O. […]

[2] = system: non-tumor-derived MCF10A breast line; assay: MTT growth inhibition assay, 72 h; assay type: cell-based, human
[3] = system: ADDP ovarian (cisplatin-resistant A2780 clone); assay: MTT growth inhibition assay, 72 h; assay type: cell-based, human; settings: MTT, 72 h

Compound	ROS Production (HT29 colon cells; 24 h)	ROS Production (HT29 colon cells; 48 h)	ROS Production (HT29 colon cells; 72 h)	log kw [1]	GI50 [2] [µM]	GI50 [3] [µM]
Cc1cc2cccnc2c2ncccc12.N[C@H]1CCCC[C@@H]1N.O=C([O-])CCCc1ccc(N(CCCl)CCCl)cc1.O=[N+]([O-])[O-].O=[N+]([O-])[O-].[OH-].[Pt+4] [5CLB, [Pt^IV(5-methyl-1,10-phenanthroline)(S,S-DACH)(CLB)(OH)](NO3)2]	337 RFU and 337 ± 8 RFU	324 RFU and 324 ± 5 RFU	376 RFU and 376 ± 1 RFU	1.90 and 1.87	0.022 ± 4.5e-06	0.026 ± 6.4e-06
O=C(CCCc1ccc(N(CCCl)CCCl)cc1)[O][Pt-2]12([OH])([NH2+][C@H]3CCCC[C@@H]3[NH2+]1)[n+]1cccc3ccc4ccc[n+]2c4c31.O=[N+]([O-])[O-].O=[N+]([O-])[O-] [PCLB, [Pt^IV(1,10-phenanthroline)(S,S-DACH)(CLB)(OH)](NO3)2]	190 RFU and 190 ± 2 RFU	244 RFU and 244 ± 7 RFU	285 RFU and 285 ± 3 RFU	1.80	0.3 ± 4.5e-05	0.29 ± 3.7e-05
Cc1c(C)c2cccnc2c2ncccc12.N[C@H]1CCCC[C@@H]1N.O=C([O-])CCCc1ccc(N(CCCl)CCCl)cc1.O=[N+]([O-])[O-].O=[N+]([O-])[O-].[OH-].[Pt+4] [56CLB, [Pt^IV(5,6-dimethyl-1,10-phenanthroline)(S,S-DACH)(CLB)(OH)](NO3)2]	395 RFU and 395 ± 3 RFU	437 RFU and 437 ± 2 RFU	558 RFU and 558 ± 2 RFU	1.87 and 1.90	0.007 ± 4e-06	0.01 ± 2.8e-06
